# Measured values reported in PMC5812813 (Journal of the American Chemical Society, 2018).
# pIC50, pKi: −log10 of the molar value. Like-named read-outs stand apart in the source and are kept apart here.
# Experiments:
# CYP1A [1] = target: T1, CYP1A (Homo sapiens, UniProt P05177); test: CYP1A inhibition; assay type: in vitro ADME; conditions: 10 μM
# T1 sequence (P05177 1-516): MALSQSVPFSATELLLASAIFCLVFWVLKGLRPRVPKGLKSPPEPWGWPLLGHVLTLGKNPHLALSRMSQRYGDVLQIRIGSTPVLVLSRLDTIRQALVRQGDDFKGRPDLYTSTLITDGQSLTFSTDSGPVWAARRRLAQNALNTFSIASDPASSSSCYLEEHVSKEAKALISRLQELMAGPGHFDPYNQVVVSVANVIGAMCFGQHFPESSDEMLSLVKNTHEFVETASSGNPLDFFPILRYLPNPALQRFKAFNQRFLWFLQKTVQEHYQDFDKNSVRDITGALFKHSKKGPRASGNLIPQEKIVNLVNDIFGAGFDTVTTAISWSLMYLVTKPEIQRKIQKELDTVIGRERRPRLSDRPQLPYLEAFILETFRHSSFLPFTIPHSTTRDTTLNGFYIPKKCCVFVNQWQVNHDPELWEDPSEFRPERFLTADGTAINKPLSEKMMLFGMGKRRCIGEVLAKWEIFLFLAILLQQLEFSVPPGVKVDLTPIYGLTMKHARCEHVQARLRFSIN
# CYP2C9 [2] = target: T2, CYP2C9 (Homo sapiens, UniProt P11712); test: CYP2C9 inhibition; assay type: in vitro ADME; conditions: 10 μM
# [3] = target: T3, ornithine aminotransferase (OAT) (Homo sapiens, UniProt P04181); test: Time- and concentration-dependent inhibition of ornithine aminotransferase; assay type: biochemical
# T3 sequence (P04181 36-439 limits assumed): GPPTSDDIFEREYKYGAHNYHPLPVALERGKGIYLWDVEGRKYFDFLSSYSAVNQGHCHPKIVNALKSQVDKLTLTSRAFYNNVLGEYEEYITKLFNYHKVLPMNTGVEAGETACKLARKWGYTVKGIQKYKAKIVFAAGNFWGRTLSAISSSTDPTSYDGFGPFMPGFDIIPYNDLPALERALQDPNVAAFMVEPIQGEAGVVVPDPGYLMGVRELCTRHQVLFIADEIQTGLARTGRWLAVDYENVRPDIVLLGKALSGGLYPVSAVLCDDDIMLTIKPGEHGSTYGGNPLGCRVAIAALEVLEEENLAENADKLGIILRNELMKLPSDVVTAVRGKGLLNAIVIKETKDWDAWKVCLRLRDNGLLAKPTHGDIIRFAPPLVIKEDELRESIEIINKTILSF
# CYP2B6 [4] = target: T4, CYP2B6 (Homo sapiens, UniProt P20813); test: CYP2B6 inhibition; assay type: in vitro ADME; conditions: 10 μM
# T4 sequence (P20813 1-491): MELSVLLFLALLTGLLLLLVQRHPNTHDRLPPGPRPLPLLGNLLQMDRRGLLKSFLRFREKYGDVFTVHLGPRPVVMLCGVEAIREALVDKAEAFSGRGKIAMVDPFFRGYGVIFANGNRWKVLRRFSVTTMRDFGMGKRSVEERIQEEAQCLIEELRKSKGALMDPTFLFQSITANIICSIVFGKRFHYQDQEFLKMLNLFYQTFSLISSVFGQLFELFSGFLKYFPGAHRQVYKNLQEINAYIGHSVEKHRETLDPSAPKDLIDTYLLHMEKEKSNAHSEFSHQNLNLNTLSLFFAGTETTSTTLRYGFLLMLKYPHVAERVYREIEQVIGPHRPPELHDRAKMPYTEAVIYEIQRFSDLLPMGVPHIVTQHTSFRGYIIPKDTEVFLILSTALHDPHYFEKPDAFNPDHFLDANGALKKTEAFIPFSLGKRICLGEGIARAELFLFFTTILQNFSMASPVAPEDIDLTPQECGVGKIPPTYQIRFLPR
# [5] = Metabolic stability in human liver microsomes; assay type: in vitro ADME; conditions: 1 μM, 90 min assay time, 37 °, LC-MS/MS
# [6] = test system: 176 pharmacological targets; test: Cerep SpectrumScreen; conditions: 3 μM
# CYP2C19 [7] = target: T5, CYP2C19 (Homo sapiens, UniProt P33261); test: CYP2C19 inhibition; assay type: in vitro ADME; conditions: 10 μM
# [8] = target: T6, aspartate aminotransferase (Asp-AT) (Sus scrofa, UniProt P00503); test: Inhibition of aspartate aminotransferase; assay type: biochemical
# hERG channel [9] = target: T7, hERG channel (Homo sapiens, UniProt Q12809); test: Inhibition of the hERG channel; assay type: cell-based; conditions: at 10 μM
# [10] = Ames test for mutagenicity
# [11] = test system: hippocampus glucose metabolism; test: microPET 18FDG, cocaine-induced increases in glucose metabolism; assay type: in vivo, rat; conditions: 5 before cocaine, statistical parametric mapping, p < 0.00001
# Irwin = test: Irwin; parameters: species or system mice; conditions: mouse, in vivo, po
# CYP2C8 [12] = target: T8, CYP2C8 (Homo sapiens, UniProt P10632); test: CYP2C8 inhibition; assay type: in vitro ADME; conditions: 10 μM
# T8 sequence (P10632 1-490): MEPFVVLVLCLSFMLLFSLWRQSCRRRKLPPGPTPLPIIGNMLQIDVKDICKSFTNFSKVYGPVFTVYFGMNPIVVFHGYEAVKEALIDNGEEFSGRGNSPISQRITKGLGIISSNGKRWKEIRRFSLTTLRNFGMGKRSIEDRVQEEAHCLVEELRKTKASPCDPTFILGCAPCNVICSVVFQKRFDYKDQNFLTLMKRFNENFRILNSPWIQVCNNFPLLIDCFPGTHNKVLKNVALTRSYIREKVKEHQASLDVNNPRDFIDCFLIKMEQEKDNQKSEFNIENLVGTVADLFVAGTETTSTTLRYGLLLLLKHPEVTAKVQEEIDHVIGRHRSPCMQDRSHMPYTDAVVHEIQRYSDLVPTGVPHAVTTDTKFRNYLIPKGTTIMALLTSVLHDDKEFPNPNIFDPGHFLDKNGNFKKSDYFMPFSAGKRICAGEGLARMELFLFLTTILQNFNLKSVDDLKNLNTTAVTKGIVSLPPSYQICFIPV
# [13] = test system: cocaine- or nicotine-induced increases in synaptic dopamine (corpus striatum); assay type: in vivo, rat
# [14] = test system: alanine aminotransferase (Ala-AT); test: Inhibition of alanine aminotransferase; assay type: biochemical
# CYP2D6 [15] = target: T9, CYP2D6 (Homo sapiens, UniProt P10635); test: CYP2D6 inhibition; assay type: in vitro ADME; conditions: 10 μM
# CYP3A [16] = test: CYP3A inhibition; assay type: in vitro ADME, human; conditions: 10 μM
# CYP2C9 [17] = target: T2, CYP2C9; conditions: cited from earlier work
# CYP2C8 [18] = target: T8, CYP2C8; conditions: cited from earlier work
# CYP2D6 [19] = target: T9, CYP2D6; conditions: cited from earlier work
# [20] = target: T3, ornithine aminotransferase (OAT); conditions: cited from earlier work
# CYP1A [21] = target: T1, CYP1A; conditions: cited from earlier work
# CYP2C19 [22] = target: T5, CYP2C19; conditions: cited from earlier work
# CYP2B6 [23] = target: T4, CYP2B6; conditions: cited from earlier work
# [24] = target: T6, aspartate aminotransferase (Asp-AT); conditions: cited from earlier work
# [25] = test system: hippocampus glucose metabolism; conditions: previously tested in similar tests; cited from earlier work
# hERG channel [26] = target: T7, hERG channel; conditions: cited from earlier work
# CYP3A [27] = conditions: cited from earlier work
# infantile spasms = conditions: cited from earlier work
# [28] = test system: alanine aminotransferase (Ala-AT); conditions: cited from earlier work
# cocaine addiction = conditions: 9-week double-blind trial; cited from earlier work
# [29] = after long-term administration; cited from earlier work
# [30] = 5 0.1 mg/kg prior to cocaine 10 mg/kg
# [31] = 5 1.0 mg/kg prior to cocaine 10 mg/kg
# T6 sequence (P00503 2-413): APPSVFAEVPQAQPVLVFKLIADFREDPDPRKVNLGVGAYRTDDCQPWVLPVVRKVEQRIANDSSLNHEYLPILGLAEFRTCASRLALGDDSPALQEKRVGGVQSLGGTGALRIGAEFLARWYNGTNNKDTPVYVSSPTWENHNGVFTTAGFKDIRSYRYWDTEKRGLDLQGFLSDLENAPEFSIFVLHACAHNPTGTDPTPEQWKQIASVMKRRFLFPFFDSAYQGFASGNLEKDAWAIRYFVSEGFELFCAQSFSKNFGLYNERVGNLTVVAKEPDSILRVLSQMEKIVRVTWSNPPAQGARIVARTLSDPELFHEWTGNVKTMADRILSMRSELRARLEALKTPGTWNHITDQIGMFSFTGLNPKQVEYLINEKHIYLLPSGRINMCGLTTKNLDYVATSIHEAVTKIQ
# T5 sequence (P33261 whole entry): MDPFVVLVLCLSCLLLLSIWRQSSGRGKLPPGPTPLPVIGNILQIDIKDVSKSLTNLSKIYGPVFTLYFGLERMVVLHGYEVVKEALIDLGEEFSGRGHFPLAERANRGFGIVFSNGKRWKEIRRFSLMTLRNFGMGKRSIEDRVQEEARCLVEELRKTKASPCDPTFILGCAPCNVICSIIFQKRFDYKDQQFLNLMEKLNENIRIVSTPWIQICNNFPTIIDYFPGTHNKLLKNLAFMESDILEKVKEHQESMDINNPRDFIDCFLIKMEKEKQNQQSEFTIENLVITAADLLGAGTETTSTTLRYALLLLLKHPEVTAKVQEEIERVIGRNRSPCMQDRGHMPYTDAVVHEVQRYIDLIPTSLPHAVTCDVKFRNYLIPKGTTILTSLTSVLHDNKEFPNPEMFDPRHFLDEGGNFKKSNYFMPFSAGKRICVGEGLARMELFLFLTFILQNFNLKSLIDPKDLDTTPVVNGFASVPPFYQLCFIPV
# T9 sequence (P10635 whole entry): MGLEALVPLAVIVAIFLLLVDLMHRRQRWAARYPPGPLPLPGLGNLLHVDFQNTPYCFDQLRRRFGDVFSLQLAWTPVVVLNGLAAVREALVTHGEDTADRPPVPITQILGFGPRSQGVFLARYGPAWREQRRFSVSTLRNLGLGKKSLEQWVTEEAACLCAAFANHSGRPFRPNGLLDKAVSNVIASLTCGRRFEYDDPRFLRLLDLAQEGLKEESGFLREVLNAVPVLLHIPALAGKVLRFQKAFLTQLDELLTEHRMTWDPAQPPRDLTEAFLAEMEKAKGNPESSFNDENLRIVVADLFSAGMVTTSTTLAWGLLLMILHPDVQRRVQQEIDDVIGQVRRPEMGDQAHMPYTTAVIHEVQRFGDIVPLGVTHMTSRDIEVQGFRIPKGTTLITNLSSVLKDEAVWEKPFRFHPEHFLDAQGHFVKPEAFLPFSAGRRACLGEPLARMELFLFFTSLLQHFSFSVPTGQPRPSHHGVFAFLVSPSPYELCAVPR
# T2 sequence (P11712 whole entry): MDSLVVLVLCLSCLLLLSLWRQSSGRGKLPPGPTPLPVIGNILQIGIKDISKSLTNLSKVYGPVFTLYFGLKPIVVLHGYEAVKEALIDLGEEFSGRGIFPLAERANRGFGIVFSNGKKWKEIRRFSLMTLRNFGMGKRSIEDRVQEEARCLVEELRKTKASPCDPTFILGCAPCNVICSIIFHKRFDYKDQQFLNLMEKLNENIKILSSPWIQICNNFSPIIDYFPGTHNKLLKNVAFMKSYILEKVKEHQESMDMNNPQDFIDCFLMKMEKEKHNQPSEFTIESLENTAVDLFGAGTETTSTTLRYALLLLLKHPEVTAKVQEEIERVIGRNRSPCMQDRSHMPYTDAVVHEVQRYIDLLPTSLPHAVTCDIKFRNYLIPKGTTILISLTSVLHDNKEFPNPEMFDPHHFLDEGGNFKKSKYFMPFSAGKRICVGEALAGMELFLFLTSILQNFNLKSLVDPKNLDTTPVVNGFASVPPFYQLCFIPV
# T7 sequence (Q12809 whole entry): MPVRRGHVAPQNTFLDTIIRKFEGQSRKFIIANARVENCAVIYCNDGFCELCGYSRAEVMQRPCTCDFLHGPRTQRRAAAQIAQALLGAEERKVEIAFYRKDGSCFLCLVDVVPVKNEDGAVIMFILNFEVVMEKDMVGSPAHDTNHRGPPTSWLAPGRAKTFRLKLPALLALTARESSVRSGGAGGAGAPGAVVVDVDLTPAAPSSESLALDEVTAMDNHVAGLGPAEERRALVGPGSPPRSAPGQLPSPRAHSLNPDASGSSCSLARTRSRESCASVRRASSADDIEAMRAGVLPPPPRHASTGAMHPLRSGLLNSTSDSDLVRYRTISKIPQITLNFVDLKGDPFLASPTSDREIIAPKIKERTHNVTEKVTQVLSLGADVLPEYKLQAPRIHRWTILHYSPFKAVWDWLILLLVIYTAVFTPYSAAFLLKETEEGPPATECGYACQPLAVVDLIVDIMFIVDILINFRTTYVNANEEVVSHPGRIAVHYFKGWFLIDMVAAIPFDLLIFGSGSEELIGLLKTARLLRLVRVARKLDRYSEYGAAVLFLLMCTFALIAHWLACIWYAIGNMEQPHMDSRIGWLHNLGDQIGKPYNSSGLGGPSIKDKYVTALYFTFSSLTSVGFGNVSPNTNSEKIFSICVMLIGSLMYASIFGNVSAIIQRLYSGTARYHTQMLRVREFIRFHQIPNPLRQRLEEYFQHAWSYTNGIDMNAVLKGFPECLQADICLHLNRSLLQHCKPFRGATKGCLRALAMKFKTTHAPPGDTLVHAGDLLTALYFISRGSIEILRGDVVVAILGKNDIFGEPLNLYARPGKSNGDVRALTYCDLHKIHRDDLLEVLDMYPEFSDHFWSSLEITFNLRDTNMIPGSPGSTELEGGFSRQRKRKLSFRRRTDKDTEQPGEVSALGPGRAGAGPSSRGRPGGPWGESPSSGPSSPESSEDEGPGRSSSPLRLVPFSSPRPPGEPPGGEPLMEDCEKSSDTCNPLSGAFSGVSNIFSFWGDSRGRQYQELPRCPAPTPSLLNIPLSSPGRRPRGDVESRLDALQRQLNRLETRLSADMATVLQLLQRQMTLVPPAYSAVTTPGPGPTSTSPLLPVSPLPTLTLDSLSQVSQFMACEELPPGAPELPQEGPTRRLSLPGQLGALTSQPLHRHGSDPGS
smiles,measurement,setting,value
"N[C@H]1C=C(C(=O)O)CC1=C(F)F [Compound 5, (S)-3-amino-4-(difluoromethylenyl)cyclopent-1-ene-1-carboxylic acid]",CYP inhibition or induction,CYP1A [1],does not inhibit or induce
same,CYP inhibition or induction,CYP2C9 [2],does not inhibit or induce
same,more effective at inhibiting GABA-AT than OAT,[3]; GABA-AT versus OAT,44 times
same,efficiency as an inactivator of OAT relative to CPP-115,[3]; ratio of kinact/KI,9.0 times
same,CYP inhibition or induction,CYP2B6 [4],does not inhibit or induce
same,metabolism in human liver microsomes,[5],No metabolism
same,activity at 176 pharmacological targets,[6],no significant activity
same,CYP inhibition or induction,CYP2C19 [7],does not inhibit or induce
same,time-dependent inhibition,[8],does not cause time-dependent inhibition
same,inhibition of the activity of the hERG channel,hERG channel [9],does not inhibit
same,Ames test for mutagenicity,[10],negative
same,cocaine-induced activation in the hippocampus (18FDG uptake),[11],no activation in the hippocampus was detected
same,NOAEL,Irwin,6 mg/kg
same,CYP inhibition or induction,CYP2C8 [12],does not inhibit or induce
same,reduction of [11C]-raclopride binding,[13]; 5 0.01 mg/kg 30 minutes prior to cocaine,20%
same,ST-CB/CB,[13]; 5 0.01 mg/kg 30 minutes prior to cocaine 10 mg/kg,3.01 ± 0.44
same,%= (Percent inhibition of cocaine-induced increase in synaptic dopamine),[13]; 5 0.01 mg/kg prior to cocaine 10 mg/kg,−20%
same,reduction of [11C]-raclopride binding,[13]; 5 0.1 mg/kg prior to cocaine,12%
same,%= (Percent inhibition of cocaine-induced increase in synaptic dopamine),[13]; [30],−12%
same,ST-CB/CB,[13]; [30],3.31 ± 0.52
same,change in [11C]-raclopride binding,[13]; 5 1.0 mg/kg prior to cocaine,no significant change
same,%= (Percent inhibition of cocaine-induced increase in synaptic dopamine),[13]; [31],−5%
same,ST-CB/CB,[13]; [31],3.56 ± 2.11
same,reduction of [11C]-raclopride binding,[13]; 5 1.0 mg/kg prior to cocaine (comparable to control),5%
same,change in [11C]-raclopride binding,[13]; 5 1.0 mg/kg prior to nicotine,no significant change
same,time-dependent inhibition,[14],does not cause time-dependent inhibition
same,pIC50,[14]; reversible inhibition,< 2.40
same,CYP inhibition or induction,CYP2D6 [15],does not inhibit or induce
same,CYP inhibition or induction,CYP3A [16],does not inhibit or induce
"COC(=O)[C@H]1[C@@H](OC(=O)c2ccccc2)C[C@@H]2CC[C@H]1N2C [Cocaine, cocaine, reference compound]",%= (Percent inhibition of cocaine-induced increase in synaptic dopamine),[13]; cocaine 10 mg/kg alone,−36%
same,ST-CB/CB,[13]; cocaine 10 mg/kg alone,2.39 ± 0.21
same,reduction of [11C]-raclopride binding,[13]; cocaine 10 mg/kg alone,36%
"N[C@H]1C[C@@H](C(=O)O)CC1=C(F)F [CPP-115, (1S,3S)-3-amino-4-difluoromethylenyl-1-cyclopentanoic acid]",CYP inhibition or induction,CYP2C9 [17],does not inhibit or induce
same,CYP inhibition or induction,CYP2C8 [18],does not inhibit or induce
same,CYP inhibition or induction,CYP2D6 [19],does not inhibit or induce
same,pKi,[20],3.94
same,CYP inhibition or induction,CYP1A [21],does not inhibit or induce
same,CYP inhibition or induction,CYP2C19 [22],does not inhibit or induce
same,CYP inhibition or induction,CYP2B6 [23],does not inhibit or induce
same,inactivation or inhibition of off-target enzyme,[24],not to inactivate or inhibit
same,block of cocaine-induced hippocampal metabolism,[25],did not completely block
same,inhibition of the activity of the hERG channel,hERG channel [26],does not inhibit
same,CYP inhibition or induction,CYP3A [27],does not inhibit or induce
same,"doses suppressing spasms, lower than those used for vigabatrin",infantile spasms,over 100 fold
same,inactivation or inhibition of off-target enzyme,[28],not to inactivate or inhibit
C=CC(N)CCC(=O)O (stereo not drawn) [vigabatrin],block of cocaine-induced hippocampal metabolism,[25],did not completely block
same,patients achieving abstinence,cocaine addiction,up to 28%
same,patients with permanent retinal damage,[29],25–40%
